How the values were obtained:
recombinant human PEPD = recombinant human PEPD (Homo sapiens (Human), UniProt P12955); assay: PEPD substrate assay (Ala-Pro cleavage, L-alanine assay kit); assay type: biochemical; conditions: 50 nM recombinant human PEPD, Ala-Pro 40 μM, 25° C.
Procedure: Protein purification. Human prolidase (PEPD) was generated and purified. XPNPEP1 in pET15-b containing a 6× His tag was expressed in E. coli Rosetta DE3 cells.
Substrate assays. For the PEPD assay, a solution of substrate (Ala-Pro) was prepared in DMSO. 24 μL of 50 nM recombinant human PEPD were added to a 384-well, black, clear-bottom plate (Corning) with 1 μL dipeptide Ala-Pro (final conc. 40 μM). […] For the AMC reporter assays, experiments were performed with cell lysates. 5 μL solution of substrate (2.5 mM Ala-AMC) was added the mixture of 10 μL HEK293T cell lysates (2.5 mg/ml) and 10 μL of indicated compounds in a 384-well, black, clear-bottom plate (Corning) to initiate the reaction. Substrate cleavage was measured as increasing fluorescence signal (Ex/Em: 380/460 nm) recorded at 25° C. for 20 mins. […] H-Lys(abz)-Pro-Pro-pNA substrate was added to a final concentration of 100 μM, and fluorescence was monitored (Ex/Em: 320/410) for 60 mins.

XPNPEP1 = XPNPEP1 (Homo sapiens (Human), UniProt Q9NQW7); assay: XPNPEP1 substrate assay (H-Lys(abz)-Pro-Pro-pNA); assay type: biochemical; conditions: XPNPEP1 3.5 nM, substrate 100 μM, 60 mins
Procedure: Protein purification. Human prolidase (PEPD) was generated and purified. XPNPEP1 in pET15-b containing a 6× His tag was expressed in E. coli Rosetta DE3 cells. Cells were induced with IPTG for 16 h at 37° C., pelleted and lysed in buffer A (20 mM Tris-HCl (pH 7.9), 500 mM NaCl, and 10% (v/v) glycerol) by sonication. Affinity purification chromatography was performed using TALON resin and according to previously published protocols (Li et al., 2008).
Substrate assays. For the PEPD assay, a solution of substrate (Ala-Pro) was prepared in DMSO. 24 μL of 50 nM recombinant human PEPD were added to a 384-well, black, clear-bottom plate (Corning) with 1 μL dipeptide Ala-Pro (final conc. 40 μM). Alanine liberated was measured as increasing fluorescence signal (Resorufin, Ex/Em: 535/587 nm) recorded at 25° C. using an L-alanine assay kit (Abcam, ab83394) at 25° C. according to manufacturer's instructions. For the AMC reporter assays, experiments were performed with cell lysates. 5 μL solution of substrate (2.5 mM Ala-AMC) was added the mixture of 10 μL HEK293T cell lysates (2.5 mg/ml) and 10 μL of indicated compounds in a 384-well, black, clear-bottom plate (Corning) to initiate the reaction. Substrate cleavage was measured as increasing fluorescence signal (Ex/Em: 380/460 nm) recorded at 25° C. for 20 mins. For XPNPEP1 enzymes (XPNPEP1 3.5 nM) were plated on a black 384-well clear bottom plate and treated with the indicated doses of compounds. H-Lys(abz)-Pro-Pro-pNA substrate was added to a final concentration of 100 μM, and fluorescence was monitored (Ex/Em: 320/410) for 60 mins.

Sequence of recombinant human PEPD (P12955 whole entry): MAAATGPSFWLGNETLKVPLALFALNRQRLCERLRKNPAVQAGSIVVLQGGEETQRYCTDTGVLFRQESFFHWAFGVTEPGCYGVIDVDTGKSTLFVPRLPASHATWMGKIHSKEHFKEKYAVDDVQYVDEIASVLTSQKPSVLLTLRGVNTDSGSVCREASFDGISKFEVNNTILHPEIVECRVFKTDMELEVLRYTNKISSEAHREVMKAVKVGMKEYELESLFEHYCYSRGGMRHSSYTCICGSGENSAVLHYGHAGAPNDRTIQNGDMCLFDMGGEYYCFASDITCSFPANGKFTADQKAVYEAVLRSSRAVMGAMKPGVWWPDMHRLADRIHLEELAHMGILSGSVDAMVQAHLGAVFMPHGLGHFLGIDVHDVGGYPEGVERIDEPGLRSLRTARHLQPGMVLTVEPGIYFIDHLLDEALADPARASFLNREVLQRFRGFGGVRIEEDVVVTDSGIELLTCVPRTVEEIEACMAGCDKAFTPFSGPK
Sequence of XPNPEP1 (Q9NQW7 whole entry): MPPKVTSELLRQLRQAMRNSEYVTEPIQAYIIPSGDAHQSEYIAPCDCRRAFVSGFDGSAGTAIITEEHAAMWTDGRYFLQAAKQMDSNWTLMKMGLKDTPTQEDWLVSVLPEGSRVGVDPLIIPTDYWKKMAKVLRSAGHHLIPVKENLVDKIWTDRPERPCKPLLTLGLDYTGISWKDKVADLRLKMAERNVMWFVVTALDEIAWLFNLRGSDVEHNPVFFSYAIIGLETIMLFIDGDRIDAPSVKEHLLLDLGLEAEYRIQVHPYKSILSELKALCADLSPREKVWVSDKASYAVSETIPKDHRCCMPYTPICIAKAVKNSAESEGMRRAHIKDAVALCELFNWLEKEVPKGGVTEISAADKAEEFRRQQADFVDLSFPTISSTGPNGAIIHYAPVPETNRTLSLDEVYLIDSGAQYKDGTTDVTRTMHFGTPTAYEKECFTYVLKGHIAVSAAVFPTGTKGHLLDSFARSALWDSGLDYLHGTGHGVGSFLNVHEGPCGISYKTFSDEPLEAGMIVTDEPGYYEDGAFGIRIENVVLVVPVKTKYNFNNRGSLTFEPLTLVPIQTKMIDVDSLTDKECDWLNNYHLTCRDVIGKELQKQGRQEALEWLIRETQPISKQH

| Structure (SMILES) | IC50 (recombinant human PEPD) | IC50 (XPNPEP1) |
| --- | --- | --- |
| COC(=O)[C@@H]1CCCN1C(=O)[C@@H](O)[C@H](N)c1ccc2ccoc2c1 [CQ69, Methyl ((2S,3R)-3-amino-3-(benzofuran-6-yl)-2-hydroxypropanoyl)-L-prolinate] | 1.8 µM | 47 µM |
| CCCC[C@@H](N)[C@H](O)C(=O)N1CCC[C@H]1C(=O)OC [CQ63] | 0.53 µM | 92 µM |
| CC(C)C[C@H](NC(=O)[C@@H]1CCCN1C(=O)[C@@H](O)[C@H](N)CC(C)C)C(=O)N1CCC1 [CQ112, (S)-1-((2S,3R)-3-amino-2-hydroxy-5-methylhexanoyl)-N—((S)-1-(azetidin-1-yl)-4-methyl-1-oxopentan-2-yl)pyrrolidine-2-carboxamide] | 66 µM | 95 µM |
| COC(=O)[C@@H]1CCCN1C(=O)[C@@H](O)[C@H](N)Cc1ccccc1 [CQ42, Methyl ((2S,3R)-3-amino-2-hydroxy-4-phenylbutanoyl)-L-prolinate] | 7.6 µM | 241 µM |
| COC(=O)[C@@H]1C[C@H](F)CN1C(=O)[C@@H](O)[C@H](N)CC(C)C [CQ35, Methyl (2S,4S)-1-((2S,3R)-3-amino-2-hydroxy-5-methylhexanoyl)-4-fluoropyrrolidine-2-carboxylate] | 0.84 µM | 74 µM |
| COC(=O)[C@@H]1CC2(CC2)CN1C(=O)[C@@H](O)[C@H](N)CC(C)C [CQ36, Methyl (S)-5-((2S,3R)-3-amino-2-hydroxy-5-methylhexanoyl)-5-azaspiro[2.4]heptane-6-carboxylate] | 1 µM | 324 µM |
| COC(=O)[C@@H]1CCCN1C(=O)[C@@H](O)[C@H](N)c1ccco1 [CQ68, Methyl ((2S,3S)-3-amino-3-(furan-2-yl)-2-hydroxypropanoyl)-L-prolinate] | 1.7 µM | 69 µM |
| COC(=O)[C@@H]1CCCN1C(=O)[C@@H](O)[C@H](N)CCC(F)(F)F [CQ43, Methyl ((2S,3R)-3-amino-6,6,6-trifluoro-2-hydroxyhexanoyl)-L-prolinate] | 1.3 µM | 115 µM |
| COC(=O)[C@@H]1CCCN1C(=O)[C@@H](O)[C@H](N)c1cccs1 [CQ70, Methyl ((2S,3S)-3-amino-2-hydroxy-3-(thiophen-2-yl)propanoyl)-L-prolinate] | 2 µM | 65 µM |
| COC(=O)[C@@H]1CCCN1C(=O)[C@@H](O)[C@H](N)c1ccccc1 [CQ64, Methyl ((2S,3R)-3-amino-2-hydroxy-3-phenylpropanoyl)-L-prolinate] | 2.8 µM | 203 µM |

Second part, the molecule after the results:

| IC50 (recombinant human PEPD) | IC50 (XPNPEP1) | Structure (SMILES) |
| --- | --- | --- |
| 4 µM | 11 µM | CC(C)C[C@H](NC(=O)[C@@H]1CCCN1C(=O)[C@@H](O)[C@H](N)CC(C)C)C(=O)N(C)C [CQ109, (S)-1-((2S,3R)-3-amino-2-hydroxy-5-methylhexanoyl)-N—((S)-1-(dimethylamino)-4-methyl-1-oxopentan-2-yl)pyrrolidine-2-carboxamide] |
| 0.56 µM | 2.9 µM | CC(C)C[C@H](NC(=O)[C@@H]1CCCN1C(=O)[C@@H](O)[C@H](N)CC(C)C)C(=O)NS(=O)(=O)N(C)C [CQ113, (S)-1-((2S,3R)-3-amino-2-hydroxy-5-methylhexanoyl)-N—((S)-1-((N,N-dimethylsulfamoyl)-amino)-4-methyl-1-oxopentan-2-yl)pyrrolidine-2-carboxamide] |
| 1.5 µM | 57 µM | COC(=O)[C@@H]1CCCN1C(=O)[C@@H](O)[C@H](N)CC(C)(C)C [CQ45, Methyl ((2S,3R)-3-amino-2-hydroxy-5,5-dimethylhexanoyl)-L-prolinate] |
| 14 µM | 84 µM | CONC(=O)[C@H](CC(C)C)NC(=O)[C@@H]1CCCN1C(=O)[C@@H](O)[C@H](N)CC(C)C [CQ111, (S)-1-((2S,3R)-3-amino-2-hydroxy-5-methylhexanoyl)-N—((S)-1-(methoxyamino)-4-methyl-1-oxopentan-2-yl)pyrrolidine-2-carboxamide] |
| 0.72 µM | 7 µM | CC(C)C[C@H](NC(=O)[C@@H]1CCCN1C(=O)[C@@H](O)[C@H](N)CC(C)C)C(=O)NCCF [CQ114, (S)-1-((2S,3R)-3-amino-2-hydroxy-5-methylhexanoyl)-N—((S)-1-((2-fluoroethyl)amino)-4-methyl-1-oxopentan-2-yl)pyrrolidine-2-carboxamide] |
| 1.8 µM | 190 µM | COC(=O)[C@@H]1CCCN1C(=O)[C@@H](O)[C@H](N)C(C)C [CQ59, Methyl ((2S,3R)-3-amino-2-hydroxy-4-methylpentanoyl)-L-prolinate] |
| 1.5 µM | 14 µM | CC(C)CCNC(=O)[C@H](CC(C)C)NC(=O)[C@@H]1CCCN1C(=O)[C@@H](O)[C@H](N)CC(C)C [CQ110, (S)-1-((2S,3R)-3-amino-2-hydroxy-5-methylhexanoyl)-N—((S)-1-(isopentylamino)-4-methyl-1-oxopentan-2-yl)pyrrolidine-2-carboxamide] |
| 7.5 µM | 10 µM | CC(C)C[C@H](NC(=O)[C@@H]1CCCN1C(=O)[C@@H](O)[C@H](N)CC(C)C)C(N)=O [CQ96, (S)-1-((2S,3R)-3-amino-2-hydroxy-5-methylhexanoyl)-N—((S)-1-amino-4-methyl-1-oxopentan-2-yl)pyrrolidine-2-carboxamide] |
| 2.2 µM | 154 µM | COC(=O)[C@@H]1C[C@H](C)CN1C(=O)[C@@H](O)[C@H](N)CC(C)C [CQ38, Methyl (2S,4S)-1-((2S,3R)-3-amino-2-hydroxy-5-methylhexanoyl)-4-methylpyrrolidine-2-carboxylate] |
| 14 µM | 1.7 µM | CC(C)C[C@H](NC(=O)[C@@H]1CCCN1C(=O)[C@@H](O)[C@H](N)CC(C)C)C(=O)NCCc1ccc(-c2ccccc2)cc1 [CQ119, (S)—N—((S)-1-((2-([1,1′-biphenyl]-4-yl)ethyl)amino)-4-methyl-1-oxopentan-2-yl)-1-((2S,3R)-3-amino-2-hydroxy-5-methylhexanoyl)pyrrolidine-2-carboxamide] |
| 3.7 µM | 14 µM | CC(C)C[C@H](NC(=O)[C@@H]1CCCN1C(=O)[C@@H](O)[C@H](N)CC(C)C)C(=O)NC(C)(C)C [CQ115, (S)-1-((2S,3R)-3-amino-2-hydroxy-5-methylhexanoyl)-N—((S)-1-(tert-butylamino)-4-methyl-1-oxopentan-2-yl)pyrrolidine-2-carboxamide] |
| 7.6 µM | 2.2 µM | CC(C)C[C@H](NC(=O)[C@@H]1CCCN1C(=O)[C@@H](O)[C@H](N)CC(C)C)C(=O)NCCc1ccc2ccccc2c1 [CQ117, (S)-1-((2S,3R)-3-amino-2-hydroxy-5-methylhexanoyl)-N—((S)-4-methyl-1-((2-(naphthalen-2-yl)ethyl)amino)-1-oxopentan-2-yl)pyrrolidine-2-carboxamide] |

— US20250368624A1, “M24B AMINOPEPTIDASE INHIBITORS FOR CARD8 INFLAMMASOME ACTIVATION” (Memorial Sloan-Kettering Cancer Center, priority 2022, published 2025)
